Patent US7135466B2 (Kirin Beer Kabushiki Kaisha, priority 1999, dated 2006)
pIC50: −log10 of the molar value.

These compounds were tested against T1, c-kit (Homo sapiens, UniProt P10721) (assay: Inhibitory activity against c-kit autophosphorylation (MO7e cells, h-SCF)). Settings: MO7e cells, h-SCF stimulation; read-out: c-kit IC50.
T1 construct: MO7e (human megakaryocytic leukemia cell line) which had been arrested for 20 hr; endogenous in cells; host or cells: MO7e human megakaryocytic leukemia cell line
Assay type: cell-based
Experimental: Inhibitory Activity Against c-kit Autophosphorylation
MO7e (human megakaryocytic leukemia cell line) which had been arrested for 20 hr was seeded into 96 well plates at an amount of 2×10^5 per well. A solution of a test compound in DMSO was added, and a reaction was then allowed to proceed for one hr. Thereafter, the cells were stimulated by 50 ng/ml of h-SCF for 5 min, followed by replacement with lysate buffer to solubilize the cells.
Next, the solubilized cell sap was transferred to a 96-well plate with an anti-phosphotyrosine antibody (PY-20) previously immobilized thereon, and a reaction was allowed to proceed. Thereafter, the cells were reacted with an anti-c-kit antibody (c-19, Santa Cruz) as a primary antibody and were labelled with GAR (anti-rabbit IgG, horseradish peroxidase, Amersham) as a secondary antibody. Color development was then carried out in a peroxidase color development kit (Sumitomo Bakelite Co., Ltd.), and the absorbance was measured at a wavelength of 450 nm.

T1 sequence (P10721 26-976): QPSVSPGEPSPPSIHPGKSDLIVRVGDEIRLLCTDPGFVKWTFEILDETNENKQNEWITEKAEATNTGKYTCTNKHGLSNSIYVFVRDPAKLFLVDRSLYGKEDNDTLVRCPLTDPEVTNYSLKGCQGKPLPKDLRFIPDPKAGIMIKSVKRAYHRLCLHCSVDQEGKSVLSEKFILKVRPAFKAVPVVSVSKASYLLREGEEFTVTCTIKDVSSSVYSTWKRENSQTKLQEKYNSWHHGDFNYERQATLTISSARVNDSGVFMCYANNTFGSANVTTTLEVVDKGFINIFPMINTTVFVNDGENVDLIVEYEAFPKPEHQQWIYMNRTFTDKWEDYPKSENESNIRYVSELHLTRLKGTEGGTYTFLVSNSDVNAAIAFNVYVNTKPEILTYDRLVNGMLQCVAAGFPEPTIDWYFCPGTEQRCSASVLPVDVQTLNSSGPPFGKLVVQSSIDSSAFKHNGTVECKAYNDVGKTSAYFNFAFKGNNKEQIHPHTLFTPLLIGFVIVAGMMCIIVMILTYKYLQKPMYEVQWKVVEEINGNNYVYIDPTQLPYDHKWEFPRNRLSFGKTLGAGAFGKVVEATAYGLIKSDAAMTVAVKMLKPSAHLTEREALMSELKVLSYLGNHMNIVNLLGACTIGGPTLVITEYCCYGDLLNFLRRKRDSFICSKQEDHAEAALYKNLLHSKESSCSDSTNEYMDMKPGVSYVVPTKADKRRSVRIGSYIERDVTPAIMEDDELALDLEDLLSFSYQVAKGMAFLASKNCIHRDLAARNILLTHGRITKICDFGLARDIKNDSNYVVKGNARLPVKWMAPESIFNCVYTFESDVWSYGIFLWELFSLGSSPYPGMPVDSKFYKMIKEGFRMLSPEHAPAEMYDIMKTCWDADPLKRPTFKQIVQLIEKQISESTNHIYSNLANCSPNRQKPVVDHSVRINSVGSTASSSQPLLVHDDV

Row | SMILES | pIC50
1 | COc1cc2nccc(Oc3ccc(NCCOc4c(OC)cccc4OC)cc3)c2cc1OC [Example 856, N-[2-(2,6-Dimethoxyphenoxy)ethyl]-N-{4-[(6,7-dimethoxy-4-quinolyl)oxy]phenyl}amine] | 6.59
2 | COc1cc2nccc(Oc3ccc(NCCOc4c(F)cccc4F)cc3)c2cc1OC [Example 857, N-[2-(2,6-Difluorophenoxy)ethyl]-N-{4-[(6,7-dimethoxy-4-quinolyl)oxy]phenyl}amine] | 6.71
3 | COc1cc2nccc(Oc3ccc(NCCOc4ccc(Cl)cc4)cc3)c2cc1OC [Example 859, N-[2-(4-Chlorophenoxy)ethyl]-N-{4-[(6,7-dimethoxy-4-quinolyl)oxy]phenyl}amine] | 6.89
4 | CCc1ccccc1OCCNc1ccc(Oc2ccnc3cc(OC)c(OC)cc23)cc1 [Example 861, N-{4-[(6,7-Dimethoxy-4-quinolyl)oxy]phenyl}-N-[2-(2-ethylphenoxy)ethyl]amine] | 6.88
5 | COc1cc2ncnc(Oc3ccc(NCCOc4ccccc4C)cc3)c2cc1OC [Example 862, N-{4-[(6,7-Dimethoxy-4-quinazolinyl)oxy]phenyl}-N-[2-(2-methylphenoxy)ethyl]amine] | 6.03
6 | COc1cc2nccc(Oc3ccc(NCCOc4cc(Cl)ccc4Cl)cc3)c2cc1OC [Example 865, N-[2-(2,5-Dichlorophenoxy)ethyl]-N-{4-[(6,7-dimethoxy-4-quinolyl)oxy]phenyl}amine] | 6.92
7 | COc1cc2nccc(Oc3ccc(NCCOc4ccc(F)cc4)cc3)c2cc1OC [Example 866, N-{4-[(6,7-Dimethoxy-4-quinolyl)oxy]phenyl}-N-[2-(4-fluorophenoxy)ethyl]amine] | 6.90
8 | COc1cc2nccc(Oc3ccc(N(C)CCOc4ccc(F)cc4)cc3)c2cc1OC [Example 867, N-{4-[(6,7-Dimethoxy-4-quinolyl)oxy]phenyl}-N-[2-(4-fluorophenoxy)ethyl]-N-methylamine] | 6.72

These reach a higher pIC50. Values come first.

Row | pIC50 | SMILES
9 | 6.99 | COc1cc2nccc(Oc3ccc(NCCOc4cc(C)cc(C)c4)cc3)c2cc1OC [Example 858, N-{4-[(6,7-Dimethoxy-4-quinolyl)oxy]-phenyl}-N-[2-(3,5-dimethylphenoxy)ethyl]amine]
10 | 7.12 | COc1cc2nccc(Oc3ccc(NCCOc4cccc(Cl)c4)cc3)c2cc1OC [Example 860, N-[2-(3-Chlorophenoxy)ethyl]-N-{4-[(6,7-dimethoxy-4-quinolyl)oxy]phenyl}amine]
11 | 7.51 | COc1ccc(OCCNc2ccc(Oc3ccnc4cc(OC)c(OC)cc34)cc2)cc1 [Example 863, N-{4-[(6,7-Dimethoxy-4-quinolyl)oxy]phenyl}-N-[2-(4-methoxyphenoxy)ethyl]amine]
12 | 7.49 | CCc1ccc(OCCNc2ccc(Oc3ccnc4cc(OC)c(OC)cc34)cc2)cc1 [Example 864, N-{4-[(6,7-Dimethoxy-4-quinolyl)oxy]phenyl}-N-[2-(4-ethylphenoxy)ethyl]amine]
13 | 7.15 | COc1cc2nccc(Oc3ccc(NCCOc4ccccc4Cl)cc3)c2cc1OC [Example 868, N-[2-(2-Chlorophenoxy)ethyl]-N-{4-[(6,7-dimethoxy-4-quinolyl)oxy]phenyl}amine]
14 | 7.10 | COc1cc2nccc(Oc3ccc(NCCOc4ccccc4)cc3)c2cc1OC [Example 869, N-{4-[(6,7-Dimethoxy-4-quinolyl)oxy]phenyl}-N-(2-phenoxyethyl)amine]
15 | 7.32 | COc1cc2nccc(Oc3ccc(NCCOc4ccc(C)cc4)cc3)c2cc1OC [Example 870, N-{4-[(6,7-Dimethoxy-4-quinolyl)oxy]phenyl}-N-[2-(4-methylphenoxy)ethyl]amine]
16 | 7.37 | COc1cc2nccc(Oc3ccc(NCCOc4cccc(C)c4)cc3)c2cc1OC [Example 871, N-{4-[(6,7-Dimethoxy-4-quinolyl)oxy]phenyl}-N-[2-(3-methylphenoxy)ethyl]amine]
17 | 7.49 | COc1cc2nccc(Oc3ccc(NCCOc4ccccc4O)cc3)c2cc1OC [Example 872, 2-(2-{4-[(6,7-Dimethoxy-4-quinolyl)oxy]anilino}ethoxy)phenol]
